# Laboratory results as given in ChEMBL document CHEMBL1143307, “Small-molecule perturbation of competing interactions between c-Myc and Max” (Bioorg Med Chem Lett, 2009).
# What was measured:
# [1] = Decrease in c-Myc-p21MAX heterodimer binding to E-box DNA at 50 uM by EMSA method
# [2] = Binding affinity to fluorescently tagged c-Myc-p21MAX heterodimer assessed as competitive constant by using fluorescence polarization titration
smiles,measurement,setting,value
CCc1ccc(/C=C2\SC(=S)NC2=O)cc1,fold change (FC),[1],2
same,Activity,[2],12
